In patent publication US7932270B2 (Cytokinetics, Inc., priority 2006, dated 2011):

Target: T1, chicken gizzard smooth muscle myosin subfragment-1 chemically crosslinked to cardiac or skeletal actin (Gallus gallus, UniProt P10587)
T1 construct: chicken gizzard smooth muscle myosin subfragment-1; from tissue; host or cells: chicken gizzard
Test: Smooth muscle myosin ATPase dose response assay (pyruvate kinase/horseradish peroxidase/pyruvate oxidase-coupled, amplex red fluorescence)
Type: biochemical
Conditions: read-out: IC50 Arithmetic Mean
Method in brief: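 Chicken gizzard myosin S1 crosslinked to cardiac or skeletal actin, titrated to a set hydrolysis rate; 0.15 mM ATP, 12 mM PIPES pH 7.00, 100 mM KCl, 2 mM MgCl2. Pyruvate kinase/pyruvate oxidase/HRP coupling with amplex red fluorescence; IC50 from 4-parameter fit.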

T1 sequence (P02607 2-151): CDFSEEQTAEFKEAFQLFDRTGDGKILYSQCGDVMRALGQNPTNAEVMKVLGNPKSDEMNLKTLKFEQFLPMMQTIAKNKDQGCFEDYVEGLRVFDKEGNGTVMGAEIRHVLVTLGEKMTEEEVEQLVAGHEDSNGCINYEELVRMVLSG
T1 sequence (P10587 84-789): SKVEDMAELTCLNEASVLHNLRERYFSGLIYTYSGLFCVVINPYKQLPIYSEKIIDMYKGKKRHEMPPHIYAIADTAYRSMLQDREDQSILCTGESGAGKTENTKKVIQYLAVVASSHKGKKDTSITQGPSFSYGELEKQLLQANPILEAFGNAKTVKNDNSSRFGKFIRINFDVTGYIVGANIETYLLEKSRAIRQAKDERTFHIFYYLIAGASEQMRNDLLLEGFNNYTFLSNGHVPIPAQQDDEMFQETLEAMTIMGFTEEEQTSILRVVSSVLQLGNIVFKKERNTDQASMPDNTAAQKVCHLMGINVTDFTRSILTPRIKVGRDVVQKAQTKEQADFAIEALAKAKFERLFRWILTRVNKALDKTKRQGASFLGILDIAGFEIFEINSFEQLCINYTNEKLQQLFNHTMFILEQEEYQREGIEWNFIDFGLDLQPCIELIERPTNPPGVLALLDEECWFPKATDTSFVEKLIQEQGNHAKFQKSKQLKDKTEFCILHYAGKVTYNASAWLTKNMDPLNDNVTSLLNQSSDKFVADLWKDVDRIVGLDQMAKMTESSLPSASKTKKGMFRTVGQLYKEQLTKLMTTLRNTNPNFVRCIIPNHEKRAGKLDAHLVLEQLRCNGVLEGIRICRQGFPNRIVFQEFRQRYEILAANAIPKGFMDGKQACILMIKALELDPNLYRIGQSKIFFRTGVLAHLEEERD

IC50 [nM]	SMILES
2990	N#Cc1cccc(-c2ccc(C(=O)NCc3cccnc3)c(NCCc3ccccn3)n2)c1 [{6-(3-cyanophenyl)-2-[(2-(2-pyridyl)ethyl)amino](3-pyridyl)}-N-(3-pyridylmethyl)carboxamide]
2130	COC(=O)N1CCC(CNC(=O)c2ccc(-c3ccccc3C#N)nc2NCCc2cccc(F)c2)CC1 [methyl 4-{[(6-(2-cyanophenyl)-2-{[2-(3-fluorophenyl)ethyl]amino}-3-pyridyl)carbonylamino]methyl}piperidinecarboxylate]
515	N#Cc1ccccc1-c1ccc(C(=O)NCc2ccc(CN)cn2)c(NCCc2cccc(F)c2)n1 [N-{[5-(aminomethyl)(2-pyridyl)]methyl}(6-(2-cyanophenyl)-2-{[2-(3-fluorophenyl)ethyl]amino}(3-pyridyl))carboxamide]
1280	N#Cc1ccccc1-c1ccc(C(=O)N[C@H](CCCCN)C(N)=O)c(NCCc2cccc(F)c2)n1 [N-((1R)-5-amino-1-carbamoylpentyl)(6-(2-cyanophenyl)-2-{[2-(3-fluorophenyl)ethyl]amino}(3-pyridyl))carboxamide]
532	O=C(NCc1cccnc1)c1ccc(-c2ccccc2)nc1NCCC1=CCCCC1 [{2-[(2-cyclohex-1-enylethyl)amino]-6-phenyl(3-pyridyl)}-N-(3-pyridylmethyl)carboxamide]
24	NCCc1cccc(CNC(=O)c2ccc(-c3ccccc3)nc2NCCc2cccc(F)c2)n1 [N-{[6-(2-aminoethyl)(2-pyridyl)]methyl}(2-{[2-(3-fluorophenyl)ethyl]amino}-6-phenyl(3-pyridyl))carboxamide]
51600	NC(=O)CNCC(O)c1ccc(-c2ccccc2)nc1NCCc1cccc(F)c1 (stereo not shown) [2-{[2-(2-{[2-(3-fluorophenyl)ethyl]amino}-6-phenyl(3-pyridyl))-2-hydroxyethyl]amino}acetamide]
4280	COC(=O)N1CCCC[C@@H]1CNC(=O)c1ccc(-c2ccccc2C#N)nc1NCCc1cccc(F)c1 [methyl (2R)-2-{[(6-(2-cyanophenyl)-2-{[2-(3-fluorophenyl)ethyl]amino}(3-pyridyl))carbonylamino]methyl}piperidinecarboxylate]
45	O=C(NCc1ccccn1)c1ccc(-c2ccc(CO)s2)nc1NCCc1cccc(F)c1 [(2-{[2-(3-fluorophenyl)ethyl]amino}-6-[5-(hydroxymethyl)(2-thienyl)](3-pyridyl))-N-(2-pyridylmethyl)carboxamide]
74	N#Cc1ccccc1-c1ccc(C(=O)NC[C@@H]2CCCCN2C(=O)CN)c(NCCc2cccc(F)c2)n1 [N-{[(2S)-1-(2-aminoacetyl)(2-piperidyl)]methyl}(6-(2-cyanophenyl)-2-{[2-(3-fluorophenyl)ethyl]amino}(3-pyridyl))carboxamide]
46	O=C(NCc1cccnc1Cl)c1ccc(-c2cn[nH]c2)nc1NCCc1cccc(F)c1
394	O=C(NC[C@H]1CCCN1)c1cc(F)c(-c2cn[nH]c2)nc1NCCc1cccc(F)c1 [N-[((2R)pyrrolidin-2-yl)methyl](5-fluoro-2-{[2-(3-fluorophenyl)ethyl]amino}-6-pyrazol-4-yl(3-pyridyl))carboxamide]
1300	Cn1nccc1CNC(=O)c1ccc(-c2ccccc2)nc1NCCc1ccccn1 [N-[(1-methylpyrazol-5-yl)methyl]{6-phenyl-2-[(2-(2-pyridyl)ethyl)amino](3-pyridyl)}carboxamide]
1460	Cn1cc(-c2ccc(C(=O)NC[C@H]3CCCN3C(=O)CCCO)c(NCCc3cccc(F)c3)n2)cn1 [N-{[(2R)-1-(4-hydroxybutanoyl)pyrrolidin-2-yl]methyl}(2-{[2-(3-fluorophenyl)ethyl]amino}-6-(1-methylpyrazol-4-yl)(3-pyridyl))carboxamide]
462	NCCCn1nccc1CNC(=O)c1ccc(-c2cc[nH]n2)nc1NCCc1cccc(F)c1 [N-{[1-(3-aminopropyl)pyrazol-5-yl]methyl}(2-{[2-(3-fluorophenyl)ethyl]amino}-6-pyrazol-3-yl(3-pyridyl))carboxamide]
439	N#Cc1ccccc1-c1ccc(C(=O)NCC2CCCN2)c(NCCc2cccc(F)c2)n1 (stereo not shown) [(6-(2-cyanophenyl)-2-{[2-(3-fluorophenyl)ethyl]amino}(3-pyridyl))-N-(pyrrolidin-2-ylmethyl)carboxamide]
143	Cn1cc(-c2nc(NCCc3cccc(F)c3)c(C(=O)NC[C@H]3CCCN3C(=O)C(O)CO)cc2F)cn1 (stereo partly drawn) [N-{[(2R)-1-(2,3-dihydroxypropanoyl)pyrrolidin-2-yl]methyl}(5-fluoro-2-{[2-(3-fluorophenyl)ethyl]amino}-6-(1-methylpyrazol-4-yl)(3-pyridyl))carboxamide]
2490	Cn1cc(-c2nc(NCCc3cccc(F)c3)c(C(=O)NCCCNC(=O)CN)cc2F)cn1 [2-amino-N-{3-[(5-fluoro-2-{[2-(3-fluorophenyl)ethyl]amino}-6-(1-methylpyrazol-4-yl)(3-pyridyl))carbonylamino]propyl}acetamide]
11300	N#Cc1ccccc1-c1ccc(C(=O)NC[C@H]2CCCN2S(=O)(=O)CCCN2C(=O)c3ccccc3C2=O)c(NCCc2cccc(F)c2)n1 [N-[((2R)-1-{[3-(1,3-dioxobenzo[c]azolin-2-yl)propyl]sulfonyl}pyrrolidin-2-yl)methyl](6-(2-cyanophenyl)-2-{[2-(3-fluorophenyl)ethyl]amino}(3-pyridyl))carboxamide]
648	C[C@H](CNC(=O)c1cc(F)c(-c2cnn(C)c2)nc1NCCc1cccc(F)c1)NCCO [N-{(2R)-2-[(2-hydroxyethyl)amino]propyl}(5-fluoro-2-{[2-(3-fluorophenyl)ethyl]amino}-6-(1-methylpyrazol-4-yl)(3-pyridyl))carboxamide]
4640	Cn1cc(-c2ccc(C(=O)NC[C@H]3CCCN3C(=O)OC(C)(C)C)c(NCCc3cccc(F)c3)n2)cn1 [tert-butyl (2R)-2-{[(2-{[2-(3-fluorophenyl)ethyl]amino}-6-(1-methylpyrazol-4-yl)(3-pyridyl))carbonylamino]methyl}pyrrolidinecarboxylate]
17000	CN1CCN(C(=O)CCN)C[C@@H]1CNC(=O)c1ccc(-c2ccccc2C#N)nc1NCCc1cccc(F)c1 [N-{[(2S)-4-(3-aminopropanoyl)-1-methylpiperazin-2-yl]methyl}(6-(2-cyanophenyl)-2-{[2-(3-fluorophenyl)ethyl]amino}(3-pyridyl))carboxamide]

SMILES	IC50 [nM]
C[C@H](NC(=O)OC(C)(C)C)C(=O)N1CCC[C@@H]1CNC(=O)c1ccc(-c2ccccc2C#N)nc1NCCc1cccc(F)c1 [N-[2-((2R)-2-{[(6-(2-cyanophenyl)-2-{[2-(3-fluorophenyl)ethyl]amino}(3-pyridyl))carbonylamino]methyl}pyrrolidinyl)(1S)-1-methyl-2-oxoethyl](tert-butoxy)carboxamide]	3260
Cn1cc(-c2ccc(C(=O)NCC3CCN(CCCNC(=O)OC(C)(C)C)C3=O)c(NCCc3cccc(F)c3)n2)cn1 (stereo not shown) [N-[(1-{3-[(tert-butoxy)carbonylamino]propyl}-2-oxopyrrolidin-3-yl)methyl](2-{[2-(3-fluorophenyl)ethyl]amino}-6-(1-methylpyrazol-4-yl)(3-pyridyl))carboxamide]	699
CC(C)(C)OC(=O)NCCCN1C(=O)CCC[C@@H]1CNC(=O)c1ccc(-c2ccccc2C#N)nc1NCCc1cccc(F)c1 [N-[((2R)-1-{3-[(tert-butoxy)carbonylamino]propyl}-6-oxo(2-piperidyl))methyl](6-(2-cyanophenyl)-2-{[2-(3-fluorophenyl)ethyl]amino}(3-pyridyl))carboxamide]	392
